Source: ChEMBL document CHEMBL5331141
Activity calls are given as the source filed them. The calls are words filed in the database; no cut-off is given here.

The compounds below were run on HEK293 (assay: Effect on HEK293 cells lacking human mu opioid receptor assessed as inhibition of cAMP accumulation at 1 uM).
Type: functional, cell-based
With `C=C(C)[C@@H]1CCC(C)=C[C@H]1c1c(O)cc(CCC)cc1O` the Activity was “inactive”.
`C=CCN1CC[C@]23c4c5ccc(O)c4O[C@H]2C(=O)CC[C@@]3(O)[C@H]1C5` was tested, and the Activity was “inactive”.
In the case of `C=C(C)[C@@H]1CCC(C)=C[C@H]1c1c(O)cc(CCCCC)cc1O`, the Activity is reported as “inactive”.
